Experimental findings from US11479578B2, “Protein purification and virus inactivation with alkyl glycosides” (priority 2017, dated 2022) are described below.

Each structure is given as a SMILES string. Read-outs that look alike come from different tables or passages of the source. Bounds are passed on as bounds.

One assay deals with PRV (pseudorabies virus). Type of assay: cell-based.
Another assay deals with VACV (Vaccinia virus). It is filed as cell-based.
The test system of assay [1] is VSV (Vesicular Stomatitis Virus). Type of assay: cell-based.
The next assay has as its target T1, rD′D3-FP (Homo sapiens, UniProt P02768+P04275).
T1 construct: made in house; host or cells: CHO cells

The subject of assay [2] is MuLV (murine leukemia virus). It is filed as cell-based.
In assay [3] the test system is BVDV (bovine viral diarrhea virus). It is filed as cell-based.

T1 sequence (P04275+P02768 fused): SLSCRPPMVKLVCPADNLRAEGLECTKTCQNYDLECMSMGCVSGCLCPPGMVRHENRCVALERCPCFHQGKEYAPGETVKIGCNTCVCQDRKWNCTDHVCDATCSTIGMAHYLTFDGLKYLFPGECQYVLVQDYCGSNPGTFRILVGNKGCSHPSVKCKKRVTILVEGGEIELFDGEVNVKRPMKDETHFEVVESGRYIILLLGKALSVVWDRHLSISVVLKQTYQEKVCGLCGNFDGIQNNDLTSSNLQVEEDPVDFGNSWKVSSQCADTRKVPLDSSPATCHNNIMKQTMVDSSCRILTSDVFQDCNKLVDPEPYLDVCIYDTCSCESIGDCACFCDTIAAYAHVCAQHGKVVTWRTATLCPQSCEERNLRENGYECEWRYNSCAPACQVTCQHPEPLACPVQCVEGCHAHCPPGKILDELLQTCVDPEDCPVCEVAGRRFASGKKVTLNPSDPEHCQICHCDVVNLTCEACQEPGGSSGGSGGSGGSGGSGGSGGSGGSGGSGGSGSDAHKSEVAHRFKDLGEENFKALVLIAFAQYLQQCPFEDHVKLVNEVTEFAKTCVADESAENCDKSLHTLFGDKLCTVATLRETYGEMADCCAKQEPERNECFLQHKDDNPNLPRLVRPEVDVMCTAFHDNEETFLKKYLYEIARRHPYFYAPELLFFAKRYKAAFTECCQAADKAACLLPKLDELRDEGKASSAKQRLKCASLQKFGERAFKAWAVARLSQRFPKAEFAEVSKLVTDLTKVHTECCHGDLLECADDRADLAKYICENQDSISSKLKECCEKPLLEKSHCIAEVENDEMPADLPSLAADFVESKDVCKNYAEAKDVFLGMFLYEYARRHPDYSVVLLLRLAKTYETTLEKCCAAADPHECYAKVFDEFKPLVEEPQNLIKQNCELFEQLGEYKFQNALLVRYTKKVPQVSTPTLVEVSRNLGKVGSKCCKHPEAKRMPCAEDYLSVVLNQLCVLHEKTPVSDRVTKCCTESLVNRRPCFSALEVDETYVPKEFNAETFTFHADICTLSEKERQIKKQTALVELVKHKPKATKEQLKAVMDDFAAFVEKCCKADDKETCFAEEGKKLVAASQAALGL

Take `CCCCCCCCCCCCO[C@@H]1O[C@H](CO)[C@@H](O[C@H]2O[C@H](CO)[C@@H](O)[C@H](O)[C@H]2O)[C@H](O)[C@H]1O` [DDM, n-dodecyl-beta-D-maltoside]: in the assay with PRV (pseudorabies virus), the “PRV virus titre after treatment” value is no more than 4.2 and the “virus inactivation capacity (in words)” value was “effective”.

On to `CCCCCCCCO[C@@H]1O[C@H](CO)[C@@H](O)[C@H](O)[C@H]1O` [OG, n-octyl-beta-D-glucopyranoside], for which, in the assay on VACV (Vaccinia virus), the “VACV inactivation (in words)” value is “completely inactivates VACV very fast” and the “VACV virus titre after treatment” value is no more than 1.5. Moreover, in assay [1], the “VSV virus titre after treatment” value was no more than 1.5. In addition, at rD′D3-FP, the “rD′D3-FP in the eluate fraction” value was 83%. For the same compound, in assay [2], the LRV is no less than 4.2 log10, the “MuLV virus titre after treatment” value is given as no more than 1.2 and the “time to complete MuLV inactivation” value was no more than 15 min. For the same compound, in assay [3], the “BVDV virus titre after treatment” value is recorded as no more than 1.2, the LRV is on record as no less than 5.3 log10 and the “time to complete BVDV inactivation” value was no more than 15 min. Further, in the assay on PRV (pseudorabies virus), the LRV is given as no less than 6.3 log10, the “time to complete PRV inactivation” value came out at 60 min and the “virus inactivation capacity (in words)” value is “effective”. Also, the “PRV Load” value with PRV (pseudorabies virus) (15 min) is reported as no more than 1.2 log10. Moreover, in the assay on PRV (pseudorabies virus) (120 min), the “PRV Load” value is 6.7 log10.

`CCCCCCCCCCO[C@@H]1O[C@H](CO)[C@@H](O[C@H]2O[C@H](CO)[C@@H](O)[C@H](O)[C@H]2O)[C@H](O)[C@H]1O` [DM, n-decyl-beta-D-maltoside]: in the assay on PRV (pseudorabies virus), the “PRV virus titre after treatment” value is recorded as no more than 2.2 and the “virus inactivation capacity (in words)” value is reported as “effective”.

For the compound `CCCCCCCCO[C@@H]1O[C@H](CO)[C@@H](O[C@H]2O[C@H](CO)[C@@H](O)[C@H](O)[C@H]2O)[C@H](O)[C@H]1O` [OM, n-octyl-beta-D-maltoside], in the assay on PRV (pseudorabies virus), the “virus inactivation capacity (in words)” value is “effective”.

`CCCCCCCCCCCCO[C@@H]1O[C@H](CO)[C@@H](O)[C@H](O)[C@H]1O` [DDG, n-dodecyl-beta-D-glucopyranoside]: in the assay with PRV (pseudorabies virus), the “PRV virus titre after treatment” value is no more than 2.2 and the “virus inactivation capacity (in words)” value is listed as “effective”.

For the compound `CCCCCCCCCCO[C@@H]1O[C@H](CO)[C@@H](O)[C@H](O)[C@H]1O` [DG, n-decyl-beta-D-glucopyranoside], in the assay on PRV (pseudorabies virus), the “PRV virus titre after treatment” value is given as no more than 2.2 and the “virus inactivation capacity (in words)” value is “effective”.
